Experiments:
[1] = KAM-matrix competition in K562 lysate; type: binding, human; details: read-out: RB50 (the source's name)
Method: (§1) Supplement 12953_2017_125_MOESM1_ESM.zip/MS_Supp Info.xlsx, sheet "KAM" | column: 10 uM KAM; 1 uM KAM; 0.1 uM KAM; 0.01 uM KAM; 0.001 uM KAM; RB50

ACTR2 = target: T1, ACTR2 (Homo sapiens, UniProt P61160); experiment: KAM-matrix competition in K562 lysate; type: binding;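 on 0.001 uM KAM: median log10 fold change of treatment over DMSO control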;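 on 0.01 uM KAM: median log10 fold change of treatment over DMSO control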;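 on 0.1 uM KAM: median log10 fold change of treatment over DMSO control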;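 on 1 uM KAM: median log10 fold change of treatment over DMSO control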;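 on 10 uM KAM: median log10 fold change of treatment over DMSO control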
T1 construct: endogenous in cells; host or cells: K562
Method: as §1

CIT = target: T2, CIT (Homo sapiens, UniProt O14578); experiment: KAM-matrix competition in K562 lysate; type: binding;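 on 0.001 uM KAM: median log10 fold change of treatment over DMSO control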;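 on 0.01 uM KAM: median log10 fold change of treatment over DMSO control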;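 on 0.1 uM KAM: median log10 fold change of treatment over DMSO control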;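 on 1 uM KAM: median log10 fold change of treatment over DMSO control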;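 on 10 uM KAM: median log10 fold change of treatment over DMSO control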
T2 construct: endogenous in cells; host or cells: K562 lysate
Method: as §1

JAK2 = target: T3, JAK2 (Homo sapiens, UniProt O60674); experiment: KAM-matrix competition in K562 lysate; type: binding
T3 construct: endogenous in cells; host or cells: K562
Method: as §1

PHKG1 = target: T4, PHKG1 (Homo sapiens, UniProt Q16816); experiment: KAM-matrix competition in K562 lysate; type: binding
T4 construct: endogenous in cells; host or cells: K562
Method: as §1

PRKD3 = target: T5, PRKD3 (Homo sapiens, UniProt O94806); experiment: KAM-matrix competition in K562 lysate; type: binding
T5 construct: endogenous in cells; host or cells: K562
T5 sequence (O94806 1-890): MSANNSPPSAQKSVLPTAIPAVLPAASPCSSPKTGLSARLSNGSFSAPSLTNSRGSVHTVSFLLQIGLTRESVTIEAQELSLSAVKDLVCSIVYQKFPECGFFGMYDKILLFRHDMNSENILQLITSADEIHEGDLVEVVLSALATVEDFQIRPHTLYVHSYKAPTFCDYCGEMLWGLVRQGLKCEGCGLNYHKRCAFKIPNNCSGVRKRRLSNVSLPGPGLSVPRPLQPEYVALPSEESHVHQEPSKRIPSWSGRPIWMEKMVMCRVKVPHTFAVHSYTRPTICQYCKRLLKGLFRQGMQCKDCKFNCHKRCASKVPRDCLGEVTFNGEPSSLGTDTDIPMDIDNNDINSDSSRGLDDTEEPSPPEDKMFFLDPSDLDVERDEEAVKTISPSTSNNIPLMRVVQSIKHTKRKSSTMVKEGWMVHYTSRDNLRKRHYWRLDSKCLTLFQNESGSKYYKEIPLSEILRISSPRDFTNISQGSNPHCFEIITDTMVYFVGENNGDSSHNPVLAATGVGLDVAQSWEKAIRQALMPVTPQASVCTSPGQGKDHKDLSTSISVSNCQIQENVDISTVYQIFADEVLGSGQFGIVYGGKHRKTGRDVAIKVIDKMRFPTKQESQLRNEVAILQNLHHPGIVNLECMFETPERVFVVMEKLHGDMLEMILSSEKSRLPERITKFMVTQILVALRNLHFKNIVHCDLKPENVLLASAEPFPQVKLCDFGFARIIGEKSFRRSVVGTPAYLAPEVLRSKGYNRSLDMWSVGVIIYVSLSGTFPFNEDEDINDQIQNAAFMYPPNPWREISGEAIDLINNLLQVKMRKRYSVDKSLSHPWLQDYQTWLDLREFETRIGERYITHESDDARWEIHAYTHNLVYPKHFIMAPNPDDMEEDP
Method: as §1

RIPK1 = target: T6, RIPK1 (Homo sapiens, UniProt Q13546); experiment: KAM-matrix competition in K562 lysate; type: binding;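 on 0.001 uM KAM: median log10 fold change of treatment over DMSO control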;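 on 0.01 uM KAM: median log10 fold change of treatment over DMSO control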;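 on 0.1 uM KAM: median log10 fold change of treatment over DMSO control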;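 on 1 uM KAM: median log10 fold change of treatment over DMSO control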;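 on 10 uM KAM: median log10 fold change of treatment over DMSO control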
T6 construct: endogenous in cells; host or cells: K562
T6 sequence (Q13546 1-671): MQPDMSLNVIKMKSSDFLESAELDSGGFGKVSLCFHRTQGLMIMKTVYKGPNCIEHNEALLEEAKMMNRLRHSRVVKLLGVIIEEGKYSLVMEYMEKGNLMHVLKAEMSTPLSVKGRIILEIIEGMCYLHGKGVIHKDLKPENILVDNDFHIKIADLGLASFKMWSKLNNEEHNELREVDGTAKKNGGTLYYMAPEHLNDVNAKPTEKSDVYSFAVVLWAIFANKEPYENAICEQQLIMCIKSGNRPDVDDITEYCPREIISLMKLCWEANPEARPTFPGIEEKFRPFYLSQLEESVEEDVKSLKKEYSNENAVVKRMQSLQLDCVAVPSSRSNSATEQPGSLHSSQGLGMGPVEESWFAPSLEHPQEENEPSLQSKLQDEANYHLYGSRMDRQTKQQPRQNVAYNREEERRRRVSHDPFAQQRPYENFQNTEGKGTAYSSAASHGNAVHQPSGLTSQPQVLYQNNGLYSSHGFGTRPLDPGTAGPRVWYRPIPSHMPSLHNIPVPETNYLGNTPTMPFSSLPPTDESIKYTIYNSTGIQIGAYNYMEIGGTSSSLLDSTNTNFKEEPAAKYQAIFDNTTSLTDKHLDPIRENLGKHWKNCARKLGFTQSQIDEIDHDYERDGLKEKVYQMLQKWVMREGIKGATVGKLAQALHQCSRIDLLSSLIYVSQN
Method: as §1

RPS6KA5 = target: T7, RPS6KA5 (Homo sapiens, UniProt O75582); experiment: KAM-matrix competition in K562 lysate; type: binding
T7 construct: endogenous in cells; host or cells: K562
Method: as §1

RPS6KB1 = target: T8, RPS6KB1 (Homo sapiens, UniProt P23443); experiment: KAM-matrix competition in K562 lysate; type: binding;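 on 0.001 uM KAM: median log10 fold change of treatment over DMSO control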;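 on 0.01 uM KAM: median log10 fold change of treatment over DMSO control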;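 on 0.1 uM KAM: median log10 fold change of treatment over DMSO control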;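 on 1 uM KAM: median log10 fold change of treatment over DMSO control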;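 on 10 uM KAM: median log10 fold change of treatment over DMSO control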
T8 construct: endogenous in cells; host or cells: K562
Method: as §1

TRRAP = target: T9, TRRAP (Homo sapiens, UniProt Q9Y4A5); experiment: KAM-matrix competition in K562 lysate; type: binding;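 on 0.001 uM KAM: median log10 fold change of treatment over DMSO control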;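 on 0.01 uM KAM: median log10 fold change of treatment over DMSO control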;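 on 0.1 uM KAM: median log10 fold change of treatment over DMSO control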;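 on 1 uM KAM: median log10 fold change of treatment over DMSO control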;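 on 10 uM KAM: median log10 fold change of treatment over DMSO control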
T9 construct: endogenous in cells; host or cells: K562
Method: as §1

[2] = KAM 0.001-10 uM, read-out: RB50 (the source's name)
[3] = read-out: RB50 (the source's name)

T8 sequence (P23443 whole entry): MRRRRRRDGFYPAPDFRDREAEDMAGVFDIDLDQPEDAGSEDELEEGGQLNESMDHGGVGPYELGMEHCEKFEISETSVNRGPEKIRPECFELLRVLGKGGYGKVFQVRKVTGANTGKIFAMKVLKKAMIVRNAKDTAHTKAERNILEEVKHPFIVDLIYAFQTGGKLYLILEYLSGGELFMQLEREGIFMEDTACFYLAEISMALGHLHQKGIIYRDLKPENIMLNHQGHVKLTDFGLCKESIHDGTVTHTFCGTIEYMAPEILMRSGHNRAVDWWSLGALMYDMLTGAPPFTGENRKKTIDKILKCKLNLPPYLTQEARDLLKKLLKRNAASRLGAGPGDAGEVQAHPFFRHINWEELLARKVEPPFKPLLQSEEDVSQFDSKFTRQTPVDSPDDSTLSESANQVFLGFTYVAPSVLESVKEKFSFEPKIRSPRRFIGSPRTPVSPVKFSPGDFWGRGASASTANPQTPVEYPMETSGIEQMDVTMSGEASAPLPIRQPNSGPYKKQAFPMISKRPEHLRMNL
T7 sequence (O75582 whole entry): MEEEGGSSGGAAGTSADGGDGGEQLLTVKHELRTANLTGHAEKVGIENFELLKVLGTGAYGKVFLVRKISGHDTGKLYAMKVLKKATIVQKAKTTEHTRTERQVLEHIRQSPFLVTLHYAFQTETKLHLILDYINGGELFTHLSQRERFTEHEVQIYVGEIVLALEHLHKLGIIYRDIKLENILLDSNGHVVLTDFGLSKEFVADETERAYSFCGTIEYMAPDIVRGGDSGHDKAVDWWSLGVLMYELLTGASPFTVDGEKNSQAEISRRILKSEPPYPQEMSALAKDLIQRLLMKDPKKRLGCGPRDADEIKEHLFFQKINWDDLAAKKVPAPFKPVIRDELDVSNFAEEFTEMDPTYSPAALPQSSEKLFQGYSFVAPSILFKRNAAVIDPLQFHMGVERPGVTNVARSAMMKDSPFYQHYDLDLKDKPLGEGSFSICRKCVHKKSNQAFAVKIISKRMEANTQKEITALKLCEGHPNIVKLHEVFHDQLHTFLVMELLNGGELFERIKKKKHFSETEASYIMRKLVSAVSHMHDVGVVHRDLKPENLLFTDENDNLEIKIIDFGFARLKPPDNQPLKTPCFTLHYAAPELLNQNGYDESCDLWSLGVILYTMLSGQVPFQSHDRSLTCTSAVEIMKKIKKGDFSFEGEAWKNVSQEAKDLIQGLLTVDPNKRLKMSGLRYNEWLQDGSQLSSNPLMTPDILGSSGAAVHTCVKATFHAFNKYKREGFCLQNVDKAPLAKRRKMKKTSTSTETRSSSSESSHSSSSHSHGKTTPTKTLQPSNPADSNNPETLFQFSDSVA
T4 sequence (Q16816 whole entry): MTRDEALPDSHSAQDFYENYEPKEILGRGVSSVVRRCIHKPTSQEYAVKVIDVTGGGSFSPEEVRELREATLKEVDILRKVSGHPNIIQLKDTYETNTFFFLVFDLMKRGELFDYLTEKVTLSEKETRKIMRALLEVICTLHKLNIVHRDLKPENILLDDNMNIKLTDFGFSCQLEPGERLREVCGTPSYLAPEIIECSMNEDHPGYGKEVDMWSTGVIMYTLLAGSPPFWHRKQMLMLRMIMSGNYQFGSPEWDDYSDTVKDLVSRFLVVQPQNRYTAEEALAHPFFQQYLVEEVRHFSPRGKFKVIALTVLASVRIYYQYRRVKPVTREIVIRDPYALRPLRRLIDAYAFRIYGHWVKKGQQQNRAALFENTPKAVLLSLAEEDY
T2 sequence (O14578 whole entry): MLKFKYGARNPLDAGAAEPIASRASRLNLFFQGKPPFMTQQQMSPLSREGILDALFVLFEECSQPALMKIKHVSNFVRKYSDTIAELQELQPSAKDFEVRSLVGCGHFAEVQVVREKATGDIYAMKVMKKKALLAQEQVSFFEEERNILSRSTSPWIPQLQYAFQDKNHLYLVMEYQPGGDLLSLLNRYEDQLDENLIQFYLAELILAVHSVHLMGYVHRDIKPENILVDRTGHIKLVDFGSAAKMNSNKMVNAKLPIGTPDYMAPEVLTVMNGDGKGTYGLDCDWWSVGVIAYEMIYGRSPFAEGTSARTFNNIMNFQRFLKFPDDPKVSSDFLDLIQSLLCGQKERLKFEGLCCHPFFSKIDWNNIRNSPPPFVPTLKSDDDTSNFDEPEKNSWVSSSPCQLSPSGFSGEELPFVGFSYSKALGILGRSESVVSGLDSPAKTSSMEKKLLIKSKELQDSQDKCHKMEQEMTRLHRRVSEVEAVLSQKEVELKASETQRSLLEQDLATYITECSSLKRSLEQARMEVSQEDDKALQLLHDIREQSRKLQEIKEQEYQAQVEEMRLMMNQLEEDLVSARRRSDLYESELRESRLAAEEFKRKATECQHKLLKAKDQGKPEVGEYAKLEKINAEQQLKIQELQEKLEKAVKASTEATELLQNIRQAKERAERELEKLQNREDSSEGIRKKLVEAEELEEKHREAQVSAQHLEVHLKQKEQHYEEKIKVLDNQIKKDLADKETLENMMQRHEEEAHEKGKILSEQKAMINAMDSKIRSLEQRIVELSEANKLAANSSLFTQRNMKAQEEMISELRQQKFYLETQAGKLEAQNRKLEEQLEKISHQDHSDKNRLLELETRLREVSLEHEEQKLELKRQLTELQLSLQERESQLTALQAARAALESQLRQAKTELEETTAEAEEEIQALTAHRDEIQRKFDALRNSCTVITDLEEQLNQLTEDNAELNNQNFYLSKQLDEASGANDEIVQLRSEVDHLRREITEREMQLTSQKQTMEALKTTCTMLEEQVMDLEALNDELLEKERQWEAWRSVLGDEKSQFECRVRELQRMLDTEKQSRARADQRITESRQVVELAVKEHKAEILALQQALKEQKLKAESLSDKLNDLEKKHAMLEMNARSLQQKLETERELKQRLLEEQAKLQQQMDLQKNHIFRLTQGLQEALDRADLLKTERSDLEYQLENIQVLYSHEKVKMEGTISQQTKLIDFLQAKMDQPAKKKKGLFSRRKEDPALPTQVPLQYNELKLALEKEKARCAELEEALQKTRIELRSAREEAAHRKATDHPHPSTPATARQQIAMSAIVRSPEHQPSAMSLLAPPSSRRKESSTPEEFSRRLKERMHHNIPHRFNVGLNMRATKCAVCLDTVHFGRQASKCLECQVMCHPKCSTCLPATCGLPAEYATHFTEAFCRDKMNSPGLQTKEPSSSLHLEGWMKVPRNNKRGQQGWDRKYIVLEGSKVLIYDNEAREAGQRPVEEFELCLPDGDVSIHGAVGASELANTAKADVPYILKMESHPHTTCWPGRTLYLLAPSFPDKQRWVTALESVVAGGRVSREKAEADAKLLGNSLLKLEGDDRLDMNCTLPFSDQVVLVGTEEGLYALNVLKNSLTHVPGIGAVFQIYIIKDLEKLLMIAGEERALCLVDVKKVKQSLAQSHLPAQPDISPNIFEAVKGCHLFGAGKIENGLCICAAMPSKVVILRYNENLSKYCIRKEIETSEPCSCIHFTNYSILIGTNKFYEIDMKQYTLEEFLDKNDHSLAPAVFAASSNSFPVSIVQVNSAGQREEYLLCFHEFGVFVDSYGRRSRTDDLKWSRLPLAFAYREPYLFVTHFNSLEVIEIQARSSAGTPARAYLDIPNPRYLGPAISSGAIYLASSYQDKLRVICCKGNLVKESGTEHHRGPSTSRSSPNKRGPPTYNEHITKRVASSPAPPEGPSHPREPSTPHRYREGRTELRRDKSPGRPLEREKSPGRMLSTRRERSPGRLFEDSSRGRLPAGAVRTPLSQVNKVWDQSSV
T3 sequence (O60674 whole entry): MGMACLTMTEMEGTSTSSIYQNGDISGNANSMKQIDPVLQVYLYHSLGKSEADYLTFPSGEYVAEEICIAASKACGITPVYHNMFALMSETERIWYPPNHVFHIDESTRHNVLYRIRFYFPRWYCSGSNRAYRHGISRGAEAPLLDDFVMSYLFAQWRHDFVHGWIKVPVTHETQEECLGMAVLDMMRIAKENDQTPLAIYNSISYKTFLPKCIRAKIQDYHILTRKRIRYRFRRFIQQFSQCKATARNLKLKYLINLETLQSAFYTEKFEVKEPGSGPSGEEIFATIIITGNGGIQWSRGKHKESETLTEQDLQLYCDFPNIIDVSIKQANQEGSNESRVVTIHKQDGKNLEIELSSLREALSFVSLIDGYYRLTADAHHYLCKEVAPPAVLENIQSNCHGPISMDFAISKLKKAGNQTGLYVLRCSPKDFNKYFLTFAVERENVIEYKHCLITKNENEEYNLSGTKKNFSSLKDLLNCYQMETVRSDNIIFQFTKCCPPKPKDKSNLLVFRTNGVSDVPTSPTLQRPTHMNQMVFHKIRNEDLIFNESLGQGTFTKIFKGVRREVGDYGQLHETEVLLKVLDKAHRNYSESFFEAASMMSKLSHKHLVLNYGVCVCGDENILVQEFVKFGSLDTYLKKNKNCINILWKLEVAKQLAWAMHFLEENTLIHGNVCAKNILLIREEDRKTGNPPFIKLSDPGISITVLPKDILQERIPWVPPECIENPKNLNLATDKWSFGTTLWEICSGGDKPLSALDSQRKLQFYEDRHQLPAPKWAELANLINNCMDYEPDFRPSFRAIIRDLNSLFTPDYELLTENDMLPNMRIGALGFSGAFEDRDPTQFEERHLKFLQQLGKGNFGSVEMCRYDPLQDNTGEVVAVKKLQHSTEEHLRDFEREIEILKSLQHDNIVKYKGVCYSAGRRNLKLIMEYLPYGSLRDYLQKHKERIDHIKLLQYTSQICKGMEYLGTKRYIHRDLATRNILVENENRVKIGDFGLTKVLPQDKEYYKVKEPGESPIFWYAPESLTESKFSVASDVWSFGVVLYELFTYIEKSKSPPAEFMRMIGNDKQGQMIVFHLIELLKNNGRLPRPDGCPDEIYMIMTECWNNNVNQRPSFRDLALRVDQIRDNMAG

SMILES: N#CCc1ccc(Nc2nc(NCCCN)cc(Nc3cc(C4CC4)[nH]n3)n2)cc1 [KAM]
- IC50 [1]: 435 nM
- IC50 (ACTR2; [2]): > 10000 nM
- 0.001 uM KAM (ACTR2; relative to 0 uM KAM = 0): -0.002123
- 0.01 uM KAM (ACTR2; relative to 0 uM KAM = 0): 0.01622
- 0.1 uM KAM (ACTR2; relative to 0 uM KAM = 0): 0.01541
- 1 uM KAM (ACTR2; relative to 0 uM KAM = 0): 0.07708
- 10 uM KAM (ACTR2; relative to 0 uM KAM = 0): 0.05031
- IC50 (CIT; [2]): > 10000 nM
- 0.001 uM KAM (CIT; relative to 0 uM KAM = 0): -0.03357
- 0.01 uM KAM (CIT; relative to 0 uM KAM = 0): -0.05687
- 0.1 uM KAM (CIT; relative to 0 uM KAM = 0): -0.1025
- 1 uM KAM (CIT; relative to 0 uM KAM = 0): -0.03677
- 10 uM KAM (CIT; relative to 0 uM KAM = 0): -0.04946
- median Log10 fold change (JAK2; 0.001 uM KAM): -0.002638
- median Log10 fold change (JAK2; 0.01 uM KAM): -0.00181
- median Log10 fold change (JAK2; 0.1 uM KAM): -0.159
- median Log10 fold change (JAK2; 1 uM KAM): -0.3349
- median Log10 fold change (JAK2; 10 uM KAM): -0.4311
- IC50 (JAK2; [3]): 909 nM
- median Log10 fold change (PHKG1; 0.001 uM KAM): -0.0673
- median Log10 fold change (PHKG1; 0.01 uM KAM): -0.04082
- median Log10 fold change (PHKG1; 0.1 uM KAM): -0.2109
- median Log10 fold change (PHKG1; 1 uM KAM): -0.4403
- median Log10 fold change (PHKG1; 10 uM KAM): -0.5431
- IC50 (PHKG1; [3]): 329 nM
- median Log10 fold change (PRKD3; 0.001 uM KAM): -0.02816
- median Log10 fold change (PRKD3; 0.01 uM KAM): -0.02551
- median Log10 fold change (PRKD3; 0.1 uM KAM): -0.171
- median Log10 fold change (PRKD3; 1 uM KAM): -0.366
- median Log10 fold change (PRKD3; 10 uM KAM): -0.539
- IC50 (PRKD3; [3]): 633 nM
- IC50 (RIPK1; [2]): > 10000 nM
- 0.001 uM KAM (RIPK1; relative to 0 uM KAM = 0): -0.02132
- 0.01 uM KAM (RIPK1; relative to 0 uM KAM = 0): 0.0003889
- 0.1 uM KAM (RIPK1; relative to 0 uM KAM = 0): -0.08047
- 1 uM KAM (RIPK1; relative to 0 uM KAM = 0): -0.1016
- 10 uM KAM (RIPK1; relative to 0 uM KAM = 0): -0.1828
- median Log10 fold change (RPS6KA5; 0.001 uM KAM): 0.02456
- median Log10 fold change (RPS6KA5; 0.01 uM KAM): -0.007608
- median Log10 fold change (RPS6KA5; 0.1 uM KAM): -0.1303
- median Log10 fold change (RPS6KA5; 1 uM KAM): -0.3238
- median Log10 fold change (RPS6KA5; 10 uM KAM): -0.3743
- IC50 (RPS6KA5; [3]): 1190 nM
- IC50 (RPS6KB1; [2]): > 10000 nM
- 0.001 uM KAM (RPS6KB1; relative to 0 uM KAM = 0): 0.05992
- 0.01 uM KAM (RPS6KB1; relative to 0 uM KAM = 0): 0.07406
- 0.1 uM KAM (RPS6KB1; relative to 0 uM KAM = 0): 0.2008
- 1 uM KAM (RPS6KB1; relative to 0 uM KAM = 0): 0.1222
- 10 uM KAM (RPS6KB1; relative to 0 uM KAM = 0): 0.1654
- IC50 (TRRAP; [2]): > 10000 nM
- 0.001 uM KAM (TRRAP; relative to 0 uM KAM = 0): -0.07186
- 0.01 uM KAM (TRRAP; relative to 0 uM KAM = 0): 0.02458
- 0.1 uM KAM (TRRAP; relative to 0 uM KAM = 0): 0.0008026
- 1 uM KAM (TRRAP; relative to 0 uM KAM = 0): 0.06144
- 10 uM KAM (TRRAP; relative to 0 uM KAM = 0): -0.07955

From article PMC5513037, “Examining the influence of specificity ligands and ATP-competitive ligands on the overall effectiveness of bivalent kinase inhibitors” (Proteome Science, 2017)
